Measurements published in BindingDB's records for patent US11174245 (Boehringer Ingelheim International, 2021).

Target: Epidermal growth factor receptor [695-1022,T790M,C797S,L858R] (Homo sapiens, UniProt P00533, C797S/L858R/T790M)
Assay: Biochemical EGFR Inhibition Assays ([…])
Design: 695-1022
Description: 5 μL of EGFR enzyme form in assay buffer (50 mM HEPES pH 7.3, 10 mM MgCl2, 1 mM EGTA, 0.01% Tween 20, 2 mM DTT) are dispensed into columns 1-23, than 5 μL of ATP and ULight-poly-GT substrate (PerkinElmer; TRF0100-M) mix in assay buffer is added to all wells (final assay concentration of the ULight-poly-GT substrate 200 nM). Each of the different EGFR enzyme form assays is available at high ATP levels (final assay concentration 100 μM). After 90 minutes incubation at room temperature 5 μL EDTA (final assay concentration 50 mM) and LANCE Eu-anti-P-Tyr (PT66) antibody (PerkinElmer, AD0069) (final assay concentration 6 nM) mix are added to stop the reaction and start the binding of the antibody. […] Each plate contains 16 wells of a negative control (diluted DMSO instead of test compound; w EGFR enzyme form; column 23) and 16 wells of a positive control (diluted DMSO instead of test compound; w/o EGFR enzyme form; column 24). Negative and positive control values are used for normalization and IC50 values are calculated and analysed using a 4 parametric logistic model.

Epidermal growth factor receptor [695-1022,T790M,C797S,L858R], sequence (P00533 695-1022 T790M/C797S/L858R): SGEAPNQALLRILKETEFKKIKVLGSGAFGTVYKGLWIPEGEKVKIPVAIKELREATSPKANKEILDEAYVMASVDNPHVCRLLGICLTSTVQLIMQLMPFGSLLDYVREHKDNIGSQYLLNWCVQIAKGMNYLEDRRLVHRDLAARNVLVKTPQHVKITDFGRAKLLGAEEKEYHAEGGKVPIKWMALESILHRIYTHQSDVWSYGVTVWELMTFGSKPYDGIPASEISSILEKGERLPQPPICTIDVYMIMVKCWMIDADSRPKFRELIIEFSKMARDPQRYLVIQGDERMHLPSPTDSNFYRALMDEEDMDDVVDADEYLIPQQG

## COc1ccncc1-c1cc(C(=O)/N=c2\[nH]c3cc(C4CCN(C(C)=O)CC4)ccc3n2CC(C)(C)O)ccn1 [US11174245, # I-031]
  IC50: 3 nM
